# Data as given in PMC12808100, “The non-catalytic DNA polymerase ε subunit is an NPF motif recognition protein” (Nature Communications, 2025).
# Residues, ends and D or L forms follow the SMILES beside them.
# What was measured:
# EHD4 = target: T1, EHD4 (Homo sapiens, UniProt Q9H223); test: nHU-MS peptide bait, prey EHD4
# T1 sequence (Q9H223 1-541): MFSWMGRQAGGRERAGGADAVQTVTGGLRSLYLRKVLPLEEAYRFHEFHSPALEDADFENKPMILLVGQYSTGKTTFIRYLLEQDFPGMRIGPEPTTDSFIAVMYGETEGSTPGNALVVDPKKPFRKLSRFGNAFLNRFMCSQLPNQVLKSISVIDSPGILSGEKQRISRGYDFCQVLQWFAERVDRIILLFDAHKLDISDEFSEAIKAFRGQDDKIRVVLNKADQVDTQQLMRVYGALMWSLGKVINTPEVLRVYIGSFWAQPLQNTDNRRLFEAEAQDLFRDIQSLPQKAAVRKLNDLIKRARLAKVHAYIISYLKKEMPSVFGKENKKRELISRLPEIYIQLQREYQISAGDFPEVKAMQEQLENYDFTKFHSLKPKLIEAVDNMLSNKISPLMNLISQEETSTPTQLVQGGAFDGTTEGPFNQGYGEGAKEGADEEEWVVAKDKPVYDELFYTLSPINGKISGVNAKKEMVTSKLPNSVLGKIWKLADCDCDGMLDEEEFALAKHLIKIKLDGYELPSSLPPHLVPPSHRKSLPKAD
# GYPC = target: T2, GYPC (Homo sapiens, UniProt P04921); test: nHU-MS peptide bait, prey GYPC
# T2 sequence (P04921 1-128): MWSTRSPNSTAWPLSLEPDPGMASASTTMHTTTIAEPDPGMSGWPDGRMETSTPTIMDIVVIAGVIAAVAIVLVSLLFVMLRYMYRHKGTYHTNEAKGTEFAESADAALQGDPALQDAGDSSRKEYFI
# GNB4 = GNB4 (Homo sapiens, UniProt Q9HAV0); test: nHU-MS peptide bait, prey GNB4
# Chain of GNB4 (Q9HAV0 2-340 limits assumed): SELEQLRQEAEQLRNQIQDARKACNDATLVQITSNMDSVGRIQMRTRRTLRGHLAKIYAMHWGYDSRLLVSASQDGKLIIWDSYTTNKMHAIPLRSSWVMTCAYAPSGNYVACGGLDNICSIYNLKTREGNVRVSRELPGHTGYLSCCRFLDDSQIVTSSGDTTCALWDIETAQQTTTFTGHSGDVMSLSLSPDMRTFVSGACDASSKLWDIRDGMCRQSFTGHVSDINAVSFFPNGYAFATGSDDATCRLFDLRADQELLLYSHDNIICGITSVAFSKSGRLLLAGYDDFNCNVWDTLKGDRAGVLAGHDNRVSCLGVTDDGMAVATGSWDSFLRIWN
# Chain of GNB4 (P59768 2-68 partner limits assumed): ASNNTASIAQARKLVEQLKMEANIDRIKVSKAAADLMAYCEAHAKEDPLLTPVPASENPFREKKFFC
# TMA7 = TMA7 (Homo sapiens, UniProt Q9Y2S6); test: nHU-MS peptide bait, prey TMA7
# Chain of TMA7 (Q9Y2S6 whole entry): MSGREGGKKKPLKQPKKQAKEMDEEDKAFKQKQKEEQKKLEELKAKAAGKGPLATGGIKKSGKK
# UBE2N = target: T3, UBE2N (Homo sapiens, UniProt P61088); test: nHU-MS peptide bait, prey UBE2N
# T3 sequence (P61088 1-152): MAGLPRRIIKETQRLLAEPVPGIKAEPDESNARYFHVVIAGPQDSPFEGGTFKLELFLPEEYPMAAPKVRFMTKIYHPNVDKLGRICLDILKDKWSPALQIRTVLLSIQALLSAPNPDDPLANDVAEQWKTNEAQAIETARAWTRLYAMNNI
# TXNRD3 = target: T4, TXNRD3 (Homo sapiens, UniProt Q86VQ6); test: nHU-MS peptide bait, prey TXNRD3
# T4 sequence (Q86VQ6 1-643): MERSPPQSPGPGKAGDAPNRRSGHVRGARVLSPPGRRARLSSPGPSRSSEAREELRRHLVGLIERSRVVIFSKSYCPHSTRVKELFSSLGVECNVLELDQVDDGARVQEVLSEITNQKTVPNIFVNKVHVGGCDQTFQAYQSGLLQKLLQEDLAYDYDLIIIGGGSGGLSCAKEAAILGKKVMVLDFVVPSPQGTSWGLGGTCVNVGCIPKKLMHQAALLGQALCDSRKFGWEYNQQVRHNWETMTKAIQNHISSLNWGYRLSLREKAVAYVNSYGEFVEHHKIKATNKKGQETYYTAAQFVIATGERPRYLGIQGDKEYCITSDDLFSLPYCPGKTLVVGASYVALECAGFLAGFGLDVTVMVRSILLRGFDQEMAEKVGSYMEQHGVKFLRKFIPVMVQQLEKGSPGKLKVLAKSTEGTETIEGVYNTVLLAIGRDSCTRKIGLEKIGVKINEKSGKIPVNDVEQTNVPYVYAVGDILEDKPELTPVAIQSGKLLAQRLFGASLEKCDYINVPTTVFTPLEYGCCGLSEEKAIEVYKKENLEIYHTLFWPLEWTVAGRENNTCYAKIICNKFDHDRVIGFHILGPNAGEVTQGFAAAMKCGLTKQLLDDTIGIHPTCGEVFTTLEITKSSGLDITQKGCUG
# ASXL2 = target: T5, ASXL2 (Homo sapiens, UniProt Q76L83); test: nHU-MS peptide bait, prey ASXL2
# T5 sequence (Q76L83 1-1435): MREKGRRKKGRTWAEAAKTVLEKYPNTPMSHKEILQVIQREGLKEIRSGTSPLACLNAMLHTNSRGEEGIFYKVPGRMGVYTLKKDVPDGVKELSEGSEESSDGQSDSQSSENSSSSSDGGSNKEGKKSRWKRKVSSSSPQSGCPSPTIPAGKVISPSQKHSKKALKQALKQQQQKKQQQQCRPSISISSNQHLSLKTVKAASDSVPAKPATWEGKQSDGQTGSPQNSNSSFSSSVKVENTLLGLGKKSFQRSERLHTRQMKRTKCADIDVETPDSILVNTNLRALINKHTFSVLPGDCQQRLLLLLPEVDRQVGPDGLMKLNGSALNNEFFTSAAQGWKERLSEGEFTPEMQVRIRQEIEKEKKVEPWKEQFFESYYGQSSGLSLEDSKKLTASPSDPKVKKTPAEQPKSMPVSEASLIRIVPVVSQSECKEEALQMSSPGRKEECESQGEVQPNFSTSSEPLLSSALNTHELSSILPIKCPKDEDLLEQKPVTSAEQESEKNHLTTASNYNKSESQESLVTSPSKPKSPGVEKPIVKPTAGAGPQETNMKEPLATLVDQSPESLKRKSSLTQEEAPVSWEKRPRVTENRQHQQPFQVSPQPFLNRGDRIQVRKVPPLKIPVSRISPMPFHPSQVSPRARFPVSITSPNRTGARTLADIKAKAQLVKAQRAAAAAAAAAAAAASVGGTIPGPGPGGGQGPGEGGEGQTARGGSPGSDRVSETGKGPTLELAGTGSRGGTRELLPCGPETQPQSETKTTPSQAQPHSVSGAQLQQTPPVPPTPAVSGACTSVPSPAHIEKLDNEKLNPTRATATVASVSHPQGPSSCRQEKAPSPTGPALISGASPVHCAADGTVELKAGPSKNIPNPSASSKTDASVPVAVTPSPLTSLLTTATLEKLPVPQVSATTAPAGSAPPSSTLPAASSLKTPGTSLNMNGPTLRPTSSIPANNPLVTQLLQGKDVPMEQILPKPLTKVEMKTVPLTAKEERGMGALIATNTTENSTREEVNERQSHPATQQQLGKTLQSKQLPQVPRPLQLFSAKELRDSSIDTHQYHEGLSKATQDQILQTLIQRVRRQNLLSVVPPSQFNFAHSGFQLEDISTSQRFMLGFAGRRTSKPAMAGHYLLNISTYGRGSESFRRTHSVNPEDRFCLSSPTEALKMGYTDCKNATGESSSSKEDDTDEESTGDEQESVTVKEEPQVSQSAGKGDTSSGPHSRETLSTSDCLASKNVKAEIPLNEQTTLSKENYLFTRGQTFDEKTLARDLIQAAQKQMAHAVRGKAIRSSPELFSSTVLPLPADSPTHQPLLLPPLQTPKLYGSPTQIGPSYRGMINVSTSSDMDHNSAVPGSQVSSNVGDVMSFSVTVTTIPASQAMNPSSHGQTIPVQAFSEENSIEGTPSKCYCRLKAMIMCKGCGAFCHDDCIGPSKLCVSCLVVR
# TXNL4B = target: T6, TXNL4B (Homo sapiens, UniProt Q9NX01); test: nHU-MS peptide bait, prey TXNL4B
# T6 sequence (Q9NX01 1-149): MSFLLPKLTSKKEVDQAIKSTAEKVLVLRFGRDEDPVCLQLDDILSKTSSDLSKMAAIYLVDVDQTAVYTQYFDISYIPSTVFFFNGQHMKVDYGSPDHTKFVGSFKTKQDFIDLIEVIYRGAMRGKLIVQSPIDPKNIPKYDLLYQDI
Kd (EHD4) [µM],"BI (EHD4; prey EHD4, MS4_Varjosalo)",Kd (GYPC) [µM],"BI (GYPC; prey GYPC, MS4_Varjosalo)",Kd (GNB4) [µM],"BI (GNB4; prey GNB4, MS7_Varjosalo)",Kd (TMA7) [µM],"BI (TMA7; prey TMA7, MS7_Varjosalo)",Kd (UBE2N) [µM],"BI (UBE2N; prey UBE2N, MS4_Varjosalo)",SMILES,Kd (TXNRD3) [µM],"BI (TXNRD3; prey TXNRD3, MS7_Varjosalo)","log2FC (TXNRD3; prey TXNRD3, MS7_Varjosalo)",Kd (ASXL2) [µM],"BI (ASXL2; prey ASXL2, MS7_Varjosalo)","log2FC (ASXL2; prey ASXL2, MS7_Varjosalo)",Kd (TXNL4B) [µM],"BI (TXNL4B; prey TXNL4B, MS7_Varjosalo)","log2FC (TXNL4B; prey TXNL4B, MS7_Varjosalo)"
18.9,0.3455,18.6,0.35,12.7,0.4407,13.4,0.4275,20.8,0.3252,CC(C)[C@H](NC(=O)[C@H](CCCCN)NC(=O)[C@H](Cc1ccccc1)NC(=O)[C@@H]1CCCN1C(=O)[C@H](CC(N)=O)NC(=O)[C@@H](NC(=O)[C@H](CCCNC(=N)N)NC(=O)CNC(=O)[C@H](CCC(N)=O)NC(=O)[C@H](CO)NC(=O)[C@@H](N)CO)C(C)C)C(=O)N[C@@H](CO)C(=O)N[C@@H](C)C(=O)N[C@@H](CO)C(=O)N[C@@H](CO)C(=O)N[C@@H](CCCCN)C(=O)N[C@@H](CCC(=O)O)C(=O)N1CCC[C@H]1C(=O)N[C@@H](C)C(N)=O [WDHD1 906-924] (H-SSQGRVNPFKVSASSKEPA-NH2),–,–,–,–,–,–,–,–,–
–,–,–,–,–,–,–,–,–,–,CC[C@H](C)[C@H](NC(=O)[C@H](CC(N)=O)NC(=O)[C@@H](NC(=O)[C@H](CCC(N)=O)NC(=O)[C@@H]1CCCN1C(=O)[C@@H](NC(=O)[C@H](CCC(N)=O)NC(=O)[C@H](CCCNC(=N)N)NC(=O)CCCCCNC(=O)CCCC[C@@H]1SC[C@@H]2NC(=O)N[C@@H]21)[C@@H](C)O)C(C)C)C(=O)N[C@@H](CC(N)=O)C(=O)N1CCC[C@H]1C(=O)N[C@@H](Cc1ccccc1)C(=O)N[C@H](C(=O)N1CCC[C@H]1C(=O)N[C@@H](CC(=O)O)C(=O)N[C@@H](CO)C(=O)N[C@@H](CC(C)C)C(=O)N[C@@H](CC(C)C)C(=O)N[C@@H](CC(C)C)C(=O)N[C@@H](Cc1c[nH]cn1)C(=O)N[C@@H](CO)C(N)=O)[C@@H](C)O [WEE1] (HELM PEPTIDE1{[O=C1N[C@H]2[C@H](CS[C@H]2CCCCC(=O)[*:2])N1].[O=C(CCCCCN[*:1])[*:2]].R.Q.T.P.Q.V.N.I.N.P.F.T.P.D.S.L.L.L.H.S.[am]}$$$$V2.0),6.85,0.5933,-1.298,5.55,0.643,-1.486,7.39,0.575,-1.234
